According to patent US20060292151A1, “L-SIGN polymorphisms and methods involving use of same” (priority 2004, published 2006):

Test system: L-SIGN alleles: L-SIGN-4, -5, -7 and -9
Test: Inhibition of L-SIGN-mediated trans-infection of Hep3B cells by HCVpp
Format: cell-based, human
Conditions: mannan 20 μg/ml
Experimental: FIG. 9. Inhibition of trans-infection with agents to the CRD of L-SIGN. HeLa or HeLa-SIGN transfectants stably expressing the indicated polymorphic forms of L-SIGN were incubated with mannan (20 μg/ml), anti-CRD mAbs (120604 and 120612, 10 μg/ml), or IgG2a isotype-control IgG (10 μg/ml) prior to addition to HCVpp. Cells were incubated an additional 2 h, washed and combined with Hep3B cells. Cultures were maintained for 48 h prior to lysis and measurement of luciferase activity. The data represent the percent of trans-infection relative to that observed in the absence of inhibitor. The values were calculated as (net RLU in the presence of inhibitor)/(net RLU in the absence of inhibitor)×100, where net RLU represents the difference in RLU values observed between transfected and parental HeLa cells. Negative values are omitted for clarity. The data represent the average of 3 independent measurements. […]
Parental HeLa cells and HeLa-SIGN transfectants (2×10^4) were incubated with 200 μl of viral supernatant for 2 h at 37° C. […] Luciferase activity was measured in cell lysates using the Luciferase Assay System (Promega, Madison, Wis.) according to the manufacturer's instructions. […] Data were analyzed for statistical significance using 2-sided t-tests and a significance level of P<0.05 unless otherwise indicated. […]

Chain of L-SIGN alleles: L-SIGN-4, -5, -7 and -9 (Q9H2X3 250-399 limits assumed): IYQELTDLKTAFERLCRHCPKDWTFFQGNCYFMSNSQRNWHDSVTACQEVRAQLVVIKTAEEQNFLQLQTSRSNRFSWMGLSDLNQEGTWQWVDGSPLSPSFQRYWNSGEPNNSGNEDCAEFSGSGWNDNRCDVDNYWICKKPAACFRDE

mannan
average level of inhibition of trans-infection across the different isoforms: 77% | level of trans-infection inhibited (range over L-SIGN-4, -5, -7 and -9) (30 min before HCVpp, Hep3B co-culture 48 h, luciferase): 47-95%
